Calls of active or inactive are those of the source. The rule behind the calls is not given here.
Columns and labels:
RAW264.7 [1] = test: Anti inflammatory activity in LPS-induced mouse RAW264.7 cells assessed as suppression of IFN- beta levels at 0.5 to 2 uM preincubated with compound for 2 hrs followed by LPS stimulation for 6 hrs by ELISA method; type: functional, cell-based; conditions: dose 0.5-2 µM, time 8.0 hrs
Mus musculus [2] = test: Anti-sepsis activity against BALB/c mouse model of LPS induced sepsis assessed as reduction in STING mRNA expression in liver at 1.25 to 5 mg/kg, IG administered once a day for 3 days followed by LPS stimulation for 12 hrs starting from 2 hrs post last dose by qRT-PCR analysis; type: functional, organism-based; conditions: dose 1.25-5 mg/kg, time 86.0 hrs
Mus musculus [3] = test: Anti-sepsis activity against BALB/c mouse model of LPS induced sepsis assessed as reduction in STING protein expression in liver at 1.25 to 5 mg/kg, IG administered once a day for 3 days followed by LPS stimulation for 12 hrs starting from 2 hrs post last dose by Western blot analysis; type: functional, organism-based; conditions: dose 1.25-5 mg/kg, time 86.0 hrs
RAW264.7 [4] = test: Anti inflammatory activity in LPS-induced mouse RAW264.7 cells assessed as inhibition of NO production preincubated with compound for 2 hrs followed by LPS stimulation and measured after 24 hrs by griess reagent based assay; type: functional, cell-based
[5] = biological target: T1, Inhibitor of nuclear factor kappa-B kinase subunit beta (Mus musculus) (UniProt O88351); test: Inhibition of IkappaB phosphorylation in LPS-induced mouse RAW264.7 cells preincubated with compound for 2 hrs followed by LPS stimulation and measured after 6 hrs by Western blot analysis; type: cell-based; conditions: dose 0.5-2 µM, time 8.0 hrs
T1 sequence (whole entry): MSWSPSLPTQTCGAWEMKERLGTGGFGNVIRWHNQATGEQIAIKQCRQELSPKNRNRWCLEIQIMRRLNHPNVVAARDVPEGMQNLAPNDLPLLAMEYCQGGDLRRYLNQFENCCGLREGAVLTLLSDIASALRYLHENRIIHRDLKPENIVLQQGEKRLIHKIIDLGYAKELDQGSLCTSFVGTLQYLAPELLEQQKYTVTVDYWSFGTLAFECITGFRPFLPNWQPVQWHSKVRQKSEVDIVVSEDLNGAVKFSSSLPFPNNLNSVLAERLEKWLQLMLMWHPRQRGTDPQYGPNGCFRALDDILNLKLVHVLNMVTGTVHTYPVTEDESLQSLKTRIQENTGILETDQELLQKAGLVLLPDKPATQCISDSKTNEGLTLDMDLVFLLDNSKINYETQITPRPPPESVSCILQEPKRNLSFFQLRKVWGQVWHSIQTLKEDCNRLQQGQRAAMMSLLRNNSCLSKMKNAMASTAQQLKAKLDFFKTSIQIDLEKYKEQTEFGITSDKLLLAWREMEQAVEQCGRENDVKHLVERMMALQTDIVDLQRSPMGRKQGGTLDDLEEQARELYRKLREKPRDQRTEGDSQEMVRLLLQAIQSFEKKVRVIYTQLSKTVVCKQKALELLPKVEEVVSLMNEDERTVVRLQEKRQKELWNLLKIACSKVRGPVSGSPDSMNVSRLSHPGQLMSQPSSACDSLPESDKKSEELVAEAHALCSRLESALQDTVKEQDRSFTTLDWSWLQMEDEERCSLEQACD

[6] = Tmax in Sprague-Dawley rat administered intragastrically; type: ADME; conditions: in vivo, po, route ig
Mus musculus [7] = test: Protective activity against LPS induced sepsis in BALB/c mouse model of acute liver injury assessed as improvement in swollen hepatocytes at 1.25 to 5 mg/kg, IG administered once a day for 3 days followed by LPS stimulation for 12 hrs starting from 2 hrs post last dose by hematoxylin and eosin staining based analysis; type: functional, organism-based; conditions: dose 1.25-5 mg/kg, time 86.0 hrs
Mus musculus [8] = test: Protective activity against LPS induced sepsis in BALB/c mouse model of acute liver injury assessed as reduction in ALP level in serum at 1.25 to 5 mg/kg, IG administered once a day for 3 days followed by LPS stimulation for 12 hrs starting from 2 hrs post last dose by ELISA; type: functional, organism-based; conditions: dose 1.25-5 mg/kg, time 86.0 hrs
[9] = biological target: T2, Interferon regulatory factor 3 (Mus musculus) (UniProt P70671); test: Inhibition of IRF3 phosphorylation in LPS-induced mouse RAW264.7 cells preincubated with compound for 2 hrs followed by LPS stimulation and measured after 6 hrs by Western blot analysis; type: cell-based; conditions: dose 0.5-2 µM, time 8.0 hrs
T2 sequence (whole entry): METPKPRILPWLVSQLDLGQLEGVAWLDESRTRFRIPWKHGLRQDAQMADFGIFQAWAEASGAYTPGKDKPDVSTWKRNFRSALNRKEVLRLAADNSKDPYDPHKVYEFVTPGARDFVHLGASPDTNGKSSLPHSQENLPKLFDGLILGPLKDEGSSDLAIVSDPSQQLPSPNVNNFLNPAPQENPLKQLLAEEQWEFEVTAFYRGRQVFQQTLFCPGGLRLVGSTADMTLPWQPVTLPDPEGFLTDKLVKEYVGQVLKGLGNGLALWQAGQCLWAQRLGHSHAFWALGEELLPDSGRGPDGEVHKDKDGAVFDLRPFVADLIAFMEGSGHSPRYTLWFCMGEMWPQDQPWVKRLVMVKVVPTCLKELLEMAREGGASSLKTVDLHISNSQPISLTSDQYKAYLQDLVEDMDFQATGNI

RAW264.7 [10] = test: Inhibition of STING protein expression in LPS-induced mouse RAW264.7 cells preincubated with compound for 2 hrs followed by LPS stimulation and measured after 6 hrs by Western blot analysis; type: functional, cell-based; conditions: dose 0.5-2 µM, time 8.0 hrs
[11] = MRT (0 to t) in Sprague-Dawley rat administered intragastrically; type: ADME; conditions: in vivo, po, route ig
[12] = biological target: T3, Stimulator of interferon genes protein (Mus musculus) (UniProt Q3TBT3); test: (§1) In vivo inhibition of STING in BALB/c mouse model of LPS induced sepsis assessed as inhibition of upregulation of phosphorylated p65 protein expression at 1.25 to 5 mg/kg, IG administered once a day for 3 days followed by LPS stimulation for 12 hrs starting from 2 hrs post last dose by Western blot analysis; type: functional, organism-based; conditions: dose 1.25-5 mg/kg, time 86.0 hrs
T3 sequence (whole entry): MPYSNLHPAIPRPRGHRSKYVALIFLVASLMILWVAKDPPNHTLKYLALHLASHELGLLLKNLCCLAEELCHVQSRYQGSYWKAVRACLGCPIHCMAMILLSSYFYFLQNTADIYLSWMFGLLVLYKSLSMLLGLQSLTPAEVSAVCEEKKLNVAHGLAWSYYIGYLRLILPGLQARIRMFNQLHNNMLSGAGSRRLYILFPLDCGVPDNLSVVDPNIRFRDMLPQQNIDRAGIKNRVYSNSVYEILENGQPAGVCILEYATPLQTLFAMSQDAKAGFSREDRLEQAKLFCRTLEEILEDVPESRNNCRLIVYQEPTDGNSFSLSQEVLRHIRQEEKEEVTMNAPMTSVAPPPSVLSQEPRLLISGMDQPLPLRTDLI

Mus musculus [13] = test: Antiinflammatory activity in BALB/c mouse model of LPS induced sepsis assessed as inhibition of IL-6 production at 1.25 to 5 mg/kg, IG administered once a day for 3 days followed by LPS stimulation for 12 hrs starting from 2 hrs post last dose by qRT-PCR analysis; type: functional, organism-based; conditions: dose 1.25-5 mg/kg, time 86.0 hrs
RAW264.7 [14] = test: Anti inflammatory activity in LPS-induced mouse RAW264.7 cells assessed as suppression of TNF-alpha levels at 0.5 to 2 uM preincubated with compound for 2 hrs followed by LPS stimulation for 6 hrs by ELISA method; type: functional, cell-based; conditions: dose 0.5-2 µM, time 8.0 hrs
[15] = biological target: T3, Stimulator of interferon genes protein (Mus musculus); test: as §1, with “IkappaB” for “p65”; type: functional, organism-based; conditions: dose 1.25-5 mg/kg, time 86.0 hrs

IC50 (RAW264.7 [4]): 1150 nM
inhibition [5]: Dose-Dependent Effect
Tmax [6]: 60 min
inhibition [9]: Dose-Dependent Effect
MRT last [11]: 59.4 min
inhibition [12]: Active
inhibition [15]: Active
SMILES: C=CCONC(=O)CCSSCCC(=O)O[C@@H]1CC[C@@]2(C)[C@@H](CC[C@@]3(C)[C@H]2[C@H](O)C[C@H]2/C(=C(\CCC=C(C)C)C(=O)OCc4ccccc4)[C@@H](OC(C)=O)C[C@@]23C)[C@@H]1C
Activity (RAW264.7 [1]): Active
Activity (Mus musculus [2]): Active
Activity (Mus musculus [3]): Active
Activity (Mus musculus [7]): Active
Activity (Mus musculus [8]): Active
inhibition (RAW264.7 [10]): Dose-Dependent Effect
inhibition (Mus musculus [13]): Active
Activity (RAW264.7 [14]): Active

Reference: ChEMBL document CHEMBL5247586, “Discovery of fusidic acid derivatives as novel STING inhibitors for treatment of sepsis” (Eur J Med Chem, 2022)
